Data: US6552196B2, “Quinolone carboxylic acid derivatives” (Dong Wha Pharmaceutical Industrial Co., Ltd., priority 1997, dated 2003)

Columns and labels:
Format in all cases: cell-based
[1] = tested on: Staphylococcus aureus 256E; assay: In vitro antibacterial activity against resistant strains (MIC); conditions: resistant strain Staphylococcus aureus 256E; 2-fold agar dilution; methicillin resistant strains 48 hours at 30° C.
Method: (§1) 10^7 cfu/ml of bacteria were inoculated and cultured for 18 hours at 37° C. and then the antibacterial activities were measured. For the methicillin resistant strains the activities were measured after 48 hours of cultivation at 30° C. Hoechst Standard strains were used for the testings.

[2] = tested on: Staphylococcus aureus 179; assay: as above; conditions: resistant strain Staphylococcus aureus 179; 2-fold agar dilution; methicillin resistant strains 48 hours at 30° C.
Method: as §1

[3] = tested on: Staphylococcus aureus 293; assay: as above; conditions: resistant strain Staphylococcus aureus 293; 2-fold agar dilution; methicillin resistant strains 48 hours at 30° C.
Method: as §1

[4] = tested on: Staphylococcus aureus 303; assay: as above; conditions: resistant strain Staphylococcus aureus 303; 2-fold agar dilution; methicillin resistant strains 48 hours at 30° C.
Method: as §1

[5] = tested on: Staphylococcus aureus 208E; assay: as above; conditions: resistant strain Staphylococcus aureus 208E; 2-fold agar dilution; methicillin resistant strains 48 hours at 30° C.
Method: as §1

[6] = tested on: Staphylococcus aureus 121E; assay: as above; conditions: resistant strain Staphylococcus aureus 121E; 2-fold agar dilution; methicillin resistant strains 48 hours at 30° C.
Method: as §1

[7] = tested on: Staphylococcus epidermidis 178; assay: as above; conditions: resistant strain Staphylococcus epidermidis 178; 2-fold agar dilution; methicillin resistant strains 48 hours at 30° C.
Method: as §1

[8] = tested on: Staphylococcus aureus 690E; assay: as above; conditions: resistant strain Staphylococcus aureus 690E; 2-fold agar dilution; methicillin resistant strains 48 hours at 30° C.
Method: as §1

[9] = tested on: Staphylococcus aureus 701E; assay: as above; conditions: resistant strain Staphylococcus aureus 701E; 2-fold agar dilution; methicillin resistant strains 48 hours at 30° C.
Method: as §1

[10] = tested on: Staphylococcus aureus 694E; assay: as above; conditions: resistant strain Staphylococcus aureus 694E; 2-fold agar dilution; methicillin resistant strains 48 hours at 30° C.
Method: as §1

[11] = tested on: Staphylococcus aureus 8236; assay: as above; conditions: resistant strain Staphylococcus aureus 8236; 2-fold agar dilution; methicillin resistant strains 48 hours at 30° C.
Method: as §1

[12] = tested on: Staphylococcus aureus 88E; assay: as above; conditions: resistant strain Staphylococcus aureus 88E; 2-fold agar dilution; methicillin resistant strains 48 hours at 30° C.
Method: as §1

[13] = tested on: Staphylococcus aureus 697E; assay: as above; conditions: resistant strain Staphylococcus aureus 697E; 2-fold agar dilution; methicillin resistant strains 48 hours at 30° C.
Method: as §1

[14] = tested on: Staphylococcus aureus 241; assay: as above; conditions: resistant strain Staphylococcus aureus 241; 2-fold agar dilution; methicillin resistant strains 48 hours at 30° C.
Method: as §1

[15] = tested on: Staphylococcus aureus 692E; assay: as above; conditions: resistant strain Staphylococcus aureus 692E; 2-fold agar dilution; methicillin resistant strains 48 hours at 30° C.
Method: as §1

[16] = tested on: Staphylococcus aureus 703E; assay: as above; conditions: resistant strain Staphylococcus aureus 703E; 2-fold agar dilution; methicillin resistant strains 48 hours at 30° C.
Method: as §1

[17] = tested on: Staphylococcus aureus 695E; assay: as above; conditions: resistant strain Staphylococcus aureus 695E; 2-fold agar dilution; methicillin resistant strains 48 hours at 30° C.
Method: as §1

[18] = tested on: Staphylococcus aureus 693E; assay: as above; conditions: resistant strain Staphylococcus aureus 693E; 2-fold agar dilution; methicillin resistant strains 48 hours at 30° C.
Method: as §1

[19] = tested on: Staphylococcus epidermidis 291; assay: as above; conditions: resistant strain Staphylococcus epidermidis 291; 2-fold agar dilution; methicillin resistant strains 48 hours at 30° C.
Method: as §1

[20] = tested on: Pseudomonas aeruginosa 1592E; assay: In vitro antibacterial activity (MIC), agar dilution; conditions: 2-fold agar dilution, Muller-Hinton agar, 18 hours at 37° C.
Method: as §1

[21] = tested on: Esherichia coli 078; assay: as above; conditions: 2-fold agar dilution, Muller-Hinton agar, 18 hours at 37° C.
Method: as §1

[22] = tested on: Streptococcus pyogens 77A; assay: as above; conditions: 2-fold agar dilution, Muller-Hinton agar, 18 hours at 37° C.
Method: as §1

[23] = tested on: Enterobacter clocae P99; assay: as above; conditions: 2-fold agar dilution, Muller-Hinton agar, 18 hours at 37° C.
Method: as §1

[24] = tested on: Enterobacter clocae 1321E; assay: as above; conditions: 2-fold agar dilution, Muller-Hinton agar, 18 hours at 37° C.
Method: as §1

[25] = tested on: Pseudomonas aeruginosa 9027; assay: as above; conditions: 2-fold agar dilution, Muller-Hinton agar, 18 hours at 37° C.
Method: as §1

[26] = tested on: Pseudomonas aeruginosa 1771M; assay: as above
Method: as §1

[27] = tested on: Salmonella typhimurium; assay: as above; conditions: 2-fold agar dilution, Muller-Hinton agar, 18 hours at 37° C.
Method: as §1

[28] = tested on: Staphylococcus aureus SG511; assay: as above; conditions: 2-fold agar dilution, Muller-Hinton agar, 18 hours at 37° C.
Method: as §1

[29] = tested on: Esherichia coli DC0; assay: as above; conditions: 2-fold agar dilution, Muller-Hinton agar, 18 hours at 37° C.
Method: as §1

[30] = tested on: Pseudomonas aeruginosa 1771; assay: as above; conditions: 2-fold agar dilution, Muller-Hinton agar, 18 hours at 37° C.
Method: as §1

[31] = tested on: Streptococcus pyogens 308A; assay: as above; conditions: 2-fold agar dilution, Muller-Hinton agar, 18 hours at 37° C.
Method: as §1

[32] = tested on: Esherichia coli DC2; assay: as above; conditions: 2-fold agar dilution, Muller-Hinton agar, 18 hours at 37° C.
Method: as §1

[33] = tested on: Esherichia coli TEM; assay: as above; conditions: 2-fold agar dilution, Muller-Hinton agar, 18 hours at 37° C.
Method: as §1

[34] = tested on: Streptococcus faecium MD 8b; assay: as above; conditions: 2-fold agar dilution, Muller-Hinton agar, 18 hours at 37° C.
Method: as §1

[35] = tested on: Staphylococcus aureus 285; assay: as above; conditions: 2-fold agar dilution, Muller-Hinton agar, 18 hours at 37° C.
Method: as §1

[36] = tested on: Klebsiella aerogenes 1522E; assay: as above; conditions: 2-fold agar dilution, Muller-Hinton agar, 18 hours at 37° C.
Method: as §1

[37] = tested on: Esherichia coli 1507E; assay: as above; conditions: 2-fold agar dilution, Muller-Hinton agar, 18 hours at 37° C.
Method: as §1

[38] = tested on: Staphylococcus aureus 503; assay: as above; conditions: 2-fold agar dilution, Muller-Hinton agar, 18 hours at 37° C.
Method: as §1

[39] = tested on: Klebsiella oxytoca 1082E; assay: as above; conditions: 2-fold agar dilution, Muller-Hinton agar, 18 hours at 37° C.
Method: as §1

[40] = read-out: minimum inhibitory concentration (MIC)

## CON=C1CN(c2c(F)c(N)c3c(=O)c(C(=O)O)cn(C4CC4)c3c2F)CC12CNC2.CS(=O)(=O)O [Example 5, 1-Cyclopropyl-5-amino-6,8-difluoro-7-[8-(methoxyimino)-2,6-diazaspiro[3,41]oct-6-yl]-4-oxo-1,4-dihydro-3-quinolinecarboxylic acid methanesulfonate]
[1]
  minimum inhibitory concentration (MIC): 0.007 µg/mL
[2]
  minimum inhibitory concentration (MIC): 0.098 µg/mL
[3]
  minimum inhibitory concentration (MIC): 0.098 µg/mL
[4]
  minimum inhibitory concentration (MIC): 0.098 µg/mL
[5]
  minimum inhibitory concentration (MIC): 0.007 µg/mL
[6]
  minimum inhibitory concentration (MIC): 0.013 µg/mL
[7]
  minimum inhibitory concentration (MIC): 0.391 µg/mL
[8]
  minimum inhibitory concentration (MIC): 0.007 µg/mL
[9]
  minimum inhibitory concentration (MIC): 0.007 µg/mL
[10]
  minimum inhibitory concentration (MIC): 0.007 µg/mL
[11]
  minimum inhibitory concentration (MIC): 0.098 µg/mL
[12]
  minimum inhibitory concentration (MIC): 0.007 µg/mL
[13]
  minimum inhibitory concentration (MIC): <0.002 µg/mL
[14]
  minimum inhibitory concentration (MIC): 0.098 µg/mL
[15]
  minimum inhibitory concentration (MIC): 0.004 µg/mL
[16]
  minimum inhibitory concentration (MIC): 0.007 µg/mL
[17]
  minimum inhibitory concentration (MIC): 0.007 µg/mL
[18]
  minimum inhibitory concentration (MIC): 0.007 µg/mL
[19]
  minimum inhibitory concentration (MIC): 0.391 µg/mL
[20]
  minimum inhibitory concentration (MIC): 0.391 µg/mL
[21]
  minimum inhibitory concentration (MIC): <0.002 µg/mL
[22]
  minimum inhibitory concentration (MIC): <0.002 µg/mL
[23]
  minimum inhibitory concentration (MIC): 0.007 µg/mL
[24]
  minimum inhibitory concentration (MIC): 0.004 µg/mL
[25]
  minimum inhibitory concentration (MIC): 0.781 µg/mL
[26]; Pseudomonas aeruginosa 1771M, 2-fold agar dilution, Muller-Hinton agar, 18 hours at 37° C.
  minimum inhibitory concentration (MIC): 0.195 µg/mL
[27]
  minimum inhibitory concentration (MIC): <0.002 µg/mL
[28]
  minimum inhibitory concentration (MIC): <0.002 µg/mL
[29]
  minimum inhibitory concentration (MIC): 0.098 µg/mL
[30]
  minimum inhibitory concentration (MIC): 0.391 µg/mL
[31]
  minimum inhibitory concentration (MIC): 0.025 µg/mL
[32]
  minimum inhibitory concentration (MIC): 0.013 µg/mL
[33]
  minimum inhibitory concentration (MIC): 0.013 µg/mL
[34]
  minimum inhibitory concentration (MIC): 0.025 µg/mL
[35]
  minimum inhibitory concentration (MIC): 0.007 µg/mL
[36]
  minimum inhibitory concentration (MIC): 0.025 µg/mL
[37]
  minimum inhibitory concentration (MIC): 0.007 µg/mL
[38]
  minimum inhibitory concentration (MIC): <0.002 µg/mL
[39]
  minimum inhibitory concentration (MIC): <0.002 µg/mL

## CON=C1CN(c2cc3c(cc2F)c(=O)c(C(=O)O)cn3-c2ccc(F)cc2F)CC12CNC2.CS(=O)(=O)O.CS(=O)(=O)O [Example 6, 1-(2,4-Difluorophenyl)-6-fluoro-7-[8-(methoxyimino)-2,6-diazaspiro[3,4]oct-6-yl]-4-oxo-1,4-dihydro-3-quinolinecarboxylic acid dimethanesulfonate]
[20]; [40]
  MIC: 1.56 µg/mL
[21]; [40]
  MIC: 0.049 µg/mL
[22]; [40]
  MIC: 0.013 µg/mL
[23]; [40]
  MIC: 0.098 µg/mL
[24]; [40]
  MIC: 0.098 µg/mL
[25]; [40]
  MIC: 3.12 µg/mL
[26]; Pseudomonas aeruginosa, 1771M, 18 h, read-out: minimum inhibitory concentration (MIC)
  MIC: 1.56 µg/mL
[27]; Salmonella enterica, read-out: minimum inhibitory concentration (MIC)
  MIC: 0.049 µg/mL
[28]; [40]
  MIC: 0.049 µg/mL
[29]; [40]
  MIC: 0.781 µg/mL
[30]; [40]
  MIC: 1.56 µg/mL
[31]; [40]
  MIC: 0.195 µg/mL
[32]; [40]
  MIC: 0.098 µg/mL
[33]; [40]
  MIC: 0.195 µg/mL
[34]; Enterococcus faecium, MD8B, read-out: minimum inhibitory concentration (MIC)
  MIC: 0.195 µg/mL
[35]; [40]
  MIC: 0.098 µg/mL
[36]; [40]
  MIC: 0.391 µg/mL
[37]; [40]
  MIC: 0.195 µg/mL
[38]; [40]
  MIC: 0.049 µg/mL
[39]; [40]
  MIC: 0.013 µg/mL
